From patent US4181728A, “Spiro-polycyclicimidazolidinedione derivatives” (Pfizer Inc., priority 1978, dated 1980) come the findings set out here.

Experiment [1] has as its target T1, aldose reductase enzyme obtained from calf lens (Bos taurus, UniProt P16116).
T1 construct: partially purified aldose reductase enzyme obtained from calf lens; from tissue; host or cells: calf lens
Put plainly: Aldose reductase inhibitory activity (partially purified calf lens enzyme). In kind it is biochemical. The following applies: 10^-4 M, * = average of 2 or 3 tests (Examples 2, 5, 6, 7). How it is done: The Examples of spiro-polycyclicimidazolidinedione derivatives prepared above were tested for their ability to reduce or inhibit aldose reductase enzyme activity, following the procedure described in U.S. Pat. No. 3,821,383 and based on the procedure of Hayman et. al., Journal of Biological Chemistry, 240, 877 (1965). The substrate employed was partially purified aldose reductase enzyme obtained from calf lens. The drug was tested at a concentration of 10^-4 M and optionally at lower concentrations and the results are expressed as percent inhibition of enzyme activity.
*This number represents an average of 2 or 3 tests.

In experiment [2] the test system is sorbitol accumulation in the sciatic nerve. The experiment is described as follows: Inhibition of sorbitol accumulation in the sciatic nerve of streptozotocinized (diabetic) rats. In kind it is in vivo, rat. The settings on record: measured 27 h after induction, vs untreated. The method, then: Some of the Examples of spiro-polycyclicimidazolidinedione derivatives prepared above were also tested for their ability to reduce or inhibit sorbitol accumulation in the sciatic nerve of streptozotocinized (i.e., diabetic) rats by the procedure essentially described in U.S. Pat. No. 3,821,383. In the present study, the amount of sorbitol accumulation in the sciatic nerves was measured 27 hours after induction of diabetes. The compounds were administered orally at the dose level indicated at 4, 8 and 24 hours following the administration of streptozotocin. The results obtained in this manner are presented in terms of percent inhibition (%) afforded by the test compound as compared to the case where no compound was administered (i.e., the untreated animal where sorbitol levels normally rise from approximately […] tissue to as high as 400 mM/g tissue in the 27-hour test period).

[3] abbreviates: 1.5 mg/kg oral at 4, 8 and 24 h after streptozotocin.
Setting [4] is: 5.0 mg/kg oral at 4, 8 and 24 h after streptozotocin.

Usually inhibition stands for the drop in the measured response relative to a control, in per cent. A high value points to strong suppression.

The compound `O=C1NC(=O)C2(CCSc3ccc4ccccc4c32)N1` (centres unmarked) [Example 1, 2',3'-dihydro-spiro[imidazolidine-4,4'-[4'H]-naphtho[2,1-b]thiopyran]-2,5-dione] yielded an inhibition at 100 µM in experiment [1] of 59%.

As for `COc1cccc2c3c(ccc12)C1(CCO3)NC(=O)NC1=O` (centres unmarked) [Example 2, 2',3'-dihydro-7'-methoxy-spiro[imidazolidine-4,4'-[4'H]-naphtho[1,2-b]pyran]-2,5-dione], the “% Inhibition of sorbitol accumulation” value in experiment [2] (setting [3]) is “no effect”. Moreover, in experiment [1], 100 µM produced 94% inhibition.

In experiment [1], `O=C1NC(=O)C2(CCCc3ccc4cc5ccccc5cc4c32)N1` (centres unmarked) [Example 3, 1',2',3',4'-tetrahydro-spiro[imidazolidine-4,1'-benz[a]anthracene]-2,5-dione] had an inhibition at 100 µM of 26%.

With `O=C1NC(=O)C2(CCSc3c2ccc2ccccc32)N1` (centres unmarked) [Example 4, 2',3'-dihydro-spiro[imidazolidine-4,4'-[4'H]-naphtho[1,2-b]thiopyran]-2,5-dione], the “% Inhibition of sorbitol accumulation” value in experiment [2] (setting [3]) amounted to 32%. For the same compound, at 100 µM the inhibition in experiment [1] was 100%.

Regarding `O=C1NC(=O)C2(CCOc3c2cc(Cl)c2ccccc32)N1` (centres unmarked) [Example 5, 5',6'-dihydro-6'-chloro-spiro[imidazolidine-4,4'-[4'H]-naphtho[1,2-b]pyran]-2,5-dione], the “% Inhibition of sorbitol accumulation” value in experiment [2] (setting [4]) is listed as 58%. Besides, in experiment [1], 100 µM produced 78% inhibition.

Regarding `O=C1NC(=O)C2(CCOc3ccc4ccccc4c32)N1` (centres unmarked) [Example 6, 2',3'-dihydro-spiro[imidazolidine-4,4'-[4'H]-naphtho[2,1-b]pyran]-2,5-dione], the “% Inhibition of sorbitol accumulation” value in experiment [2] (setting [3]) is given as “no effect”. The inhibition at 100 µM in experiment [1] was determined as 78%.

`O=C1NC(=O)C2(CCCc3c2ccc2ccccc32)N1` (centres unmarked) [Example 7, 1',2',3',4'-tetrahydro-spiro[imidazolidine-4,1'-phenanthrene]-2,5-dione]: the “% Inhibition of sorbitol accumulation” value in experiment [2] (setting [3]) was “no effect”. Besides, the inhibition at 100 µM in experiment [1] was 86%.

`O=C1NC(=O)C2(CCc3cccc4cccc2c34)N1` (centres unmarked) [Example 8, 2',3'-dihydro-spiro[imidazolidine-4,1'-phenalene]-2,5-dione]: the “% Inhibition of sorbitol accumulation” value in experiment [2] (setting [4]) was 28%. For the same compound, in experiment [1], testing at 100 µM gave an inhibition of 71%.

Take `O=C1NC(=O)C2(CCOc3c2ccc2ccccc32)N1` (centres unmarked) [Example 9, 2',3'-dihydro-spiro[imidazolidine-4,4'-[4'H]-naphtho[1,2-b]pyran]-2,5-dione]: in experiment [2] (setting [3]), the “% Inhibition of sorbitol accumulation” value turned out to be 30%. The compound further displayed an inhibition at 100 µM in experiment [1] of 72%.

On to `O=C1NC(=O)C2(CCCc3ccc4ccccc4c32)N1` (centres unmarked) [Example 10, 1',2',3',4'-tetrahydro-spiro[imidazolidine-4,4'-phenanthrene]-2,5-dione], for which the inhibition at 100 µM in experiment [1] worked out at 60%.
